Patent publication US9034876B2, “Treatment of chronic inflammation with a 1,2,4-triazolo [1,5a] pyridine derivative” (Cephalon, Inc., priority 2010, dated 2015)

Test system: phospho-STAT3
Assay: CAIA model, paw phospho-STAT3 (Luminex bead assay)
Format: in vivo, female DBA/1 mice
Conditions: Dex 1.5 mg/kg i.p. three times a week (day 6-8)
Procedure: DBA/1 female mice were injected i.v. with purified anti-collagen type II antibodies, then given 25 μg of LPS i.p. three days later to induce arthritis by day 5. Mice that met the arthritis criteria score of 1 per paw were entered into the study. Compound A was provided orally, b.i.d., for all doses tested; Dex was provided at 1.5 mg/kg three times a week, i.p.; and vehicle (PEG400+1% DMSO) was provided orally.
The graphed data was generated using Luminex® bead kits, concentration in units per ml per 3 mg of total protein as determined by the BSA assay. The graphed data represents mean±SEM, statistics were performed using 2-way ANOVA analysis.
To investigate the effect of Compound A on levels of phosphorylated STATs and cytokines in the paws of treated mice, a method was developed whereby synovial fluid and cellular joint extracts could be obtained from the paws and ankles of diseased animals for analysis using multiplex bead arrays [32]. […] Consequently, multiplex analysis was used as the primary method of measuring phosphorylated STATs for all experiments described herein.
Briefly, the front (including carpus) and back (including tarsus) right paws were collected and frozen in dry-ice cooled isopentane and stored at −80° C. until use. The paws were cut to 2 mm×2 mm segments and kept on dry-ice in round bottom polypropylene tubes. Seven hundred microliters tissue extraction buffer containing protease inhibitor cocktail (Calbiochem, San Diego, Calif.) and Halt phosphatase inhibitor cocktail (Thermo Scientific, Rockford, Ill.) or Roche phosphatase inhibitor cocktail (Roche, Indianapolis, Ind.) in tissue extraction reagent I (Invitrogen, Carlesbad, Calif.) were added to each sample. Samples were homogenized frozen using a PT 10-35 Polytron homogenizer. After homogenization, samples were centrifuged at 4° C. for 2000×g for 10 minutes and supernatants re-centrifuged at 4° C. at maximum speed, 14,000×g, for 15 minutes. Supernatants were carefully removed to avoid picking up the top layer of lipids/adipose debris. Protein concentration was measured using a BCA protein assay (Pierce, Rockford, Ill.) and adjusted to 3 mg/ml. A minimum of 25 μl of this extraction was used in the above described protocol using the mouse cytokine 10-plex bead kit (Invitrogen, Carlsbad, Calif.) or phosphorylated STAT1, 3, 5a/b, 3-plex kit (Invitrogen, Carlsbad, Calif.).

SMILES: C[C@@H]1C[C@H]2[C@@H]3CCC4=CC(=O)C=C[C@]4(C)[C@@]3(F)[C@@H](O)C[C@]2(C)[C@@]1(O)C(=O)CO [Dex, Dexamethasone, reference compound]
- time post treatment initiation at which the pSTAT3 reduction was reached: 48 hours
